The source of these data is PubChem BioAssay (NCI).

What all share (assay): inhibition of tumour cell growth, NCI panel, 48 h
For experiment [1], the system named is HCT-116 colon.
In experiment [2] the test system is IGROV1 ovarian.
Experiment [3] has as its system MALME-3M melanoma.
Experiment [4] has as its system NCI-H460 lung.
Experiment [5] has as its system OVCAR-4 ovarian.
Experiment [6] relates to SF-268 CNS.
For experiment [7], the system named is SK-OV-3 ovarian.
For experiment [8], the system named is SNB-19 CNS.
The test system of experiment [9] is SW-620 colon.
Experiment [10] concerns UO-31 renal.

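Values below derive from 48-hour exposures of cells grown in 96-well plates, with endpoints linearly interpolated between the two concentrations bracketing the appropriate inhibition level. The concentration for 50% growth inhibition is given as GI50. TGI marks complete inhibition of growth.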

Regarding `Cc1cc(N/N=C/c2nc(-c3ccc(Cl)cc3)oc2C)c2cc(Br)ccc2n1`, the GI50 in experiment [1] is 2 µM; in experiment [2] it was 3.14 µM; in experiment [3], 1.91 µM; in experiment [4] it was 1.88 µM; in [5] it was 1.87 µM; in [6], 3.7 µM. The GI50 in experiment [7] is 5.84 µM; in experiment [8], 4.13 µM; in [9], 1.87 µM; in experiment [10], 13.9 µM. The TGI was determined as 4.04 µM in [1]; 16.7 µM in [2]; 4.23 µM in experiment [3]; 3.67 µM in [4]; 3.69 µM in experiment [5]; 28.2 µM in [6]. Also, the TGI in [7] came to 18.3 µM; in experiment [8], 17.7 µM; in experiment [9] it was 4.23 µM; in [10], 26.8 µM.

As to `c1cc2c3c(c1)c1cc4c(cc1c[n+]3CC2)OCO4`, the TGI in experiment [1] stood at 75.9 µM; in experiment [2], 63.5 µM; in experiment [3] it was 3.88 µM; in experiment [4], 12.2 µM; in experiment [5], 47.7 µM; in [6], 5.26 µM. The TGI in experiment [7] is 97.2 µM; in [8], 13.5 µM; in [9], 109 µM; in experiment [10], greater than 176 µM.

Regarding `c1ccc2c(c1)NCc1cc3ccccc3nc1O2`, the TGI in [1], in experiment [2], in [3], in experiment [4], in [5] and in experiment [6] was greater than 100 µM throughout. The TGI in [7] is greater than 100 µM; in experiment [8], greater than 100 µM; in [9], greater than 100 µM; in experiment [10], greater than 31.6 µM.

As to `CCOc1cc(/C=C/C(=O)C(C(=O)/C=C/c2ccc(OC(=O)CNc3nc4ccccc4[nH]3)c(OCC)c2)C(=O)CNc2nc3ccccc3[nH]2)ccc1OC(=O)CNc1nc2ccccc2[nH]1`, the GI50 in experiment [1] is 1.63 µM; in [2], 2.93 µM; in experiment [3], 1.75 µM; in experiment [4], 1.92 µM; in experiment [5] it was 3.39 µM; in [6], 2 µM. For the same molecule, the GI50 in experiment [7] is 3.17 µM; in experiment [8], 2.96 µM; in experiment [9] it was 1.6 µM; in [10], 3.98 µM. Also, the TGI was 4.84 µM in experiment [1]; greater than 100 µM in experiment [2]; 5.93 µM in experiment [3]; 4.44 µM in experiment [4]; 22.7 µM in experiment [5]; 6.79 µM in [6]. Besides, the TGI in experiment [7] is 11.9 µM; in [8] it was 11.7 µM; in experiment [9], 2.95 µM; in experiment [10] it was greater than 100 µM.

Turning to `COc1ccc(C2=[S+]C(c3ccccc3)(c3ccccc3)c3ccccc32)cc1`, the TGI in experiment [1] is 24.3 µM; in [2], greater than 100 µM; in [3] it was 46.1 µM; in experiment [4], 30.5 µM; in experiment [5], 62.2 µM; in experiment [6], greater than 100 µM. Also, the TGI in experiment [7], in [8] and in experiment [9] was greater than 100 µM in each case.

Consider `O=C(N/N=C\c1cccc2ccccc12)Nc1ccccc1`, for which the TGI in experiment [1], in experiment [2], in experiment [3], in experiment [4], in experiment [5] and in [7] was greater than 100 µM in each case. Also, the TGI in experiment [8], in [9] and in experiment [10] was greater than 100 µM in each case.

As for `C/C(=N\NC(=O)c1ccc(Cl)cc1)c1nc2ncccc2[nH]1`, the TGI in [1] is greater than 100 µM; in experiment [2], greater than 100 µM; in [3], 48.9 µM; in experiment [4] it was greater than 100 µM; in [5] it was 47.9 µM; in [6] it was greater than 100 µM. For the same molecule, the TGI in experiment [7] was 60.5 µM; in experiment [8] it was greater than 100 µM; in experiment [9], greater than 100 µM; in experiment [10] it was greater than 100 µM.

In the case of `Cc1cn(-c2cccc(NC(=O)c3ccc(C)c(Nc4nccc(-c5cccnc5)n4)c3)c2)cn1`, the GI50 was 1.64 µM in [1]; 2.08 µM in experiment [2]; 1.51 µM in experiment [3]; 1.97 µM in [4]; 1.71 µM in experiment [5]; 2.92 µM in [6]. Moreover, the GI50 in experiment [7] is 2.03 µM; in experiment [8], 2.4 µM; in experiment [9] it was 2.25 µM; in experiment [10] it was 1.5 µM. Also, the TGI in experiment [1] was determined as 3.05 µM; in experiment [2], 3.92 µM; in [3], 2.99 µM; in [4], 4.05 µM; in experiment [5], 3.11 µM; in experiment [6], 9.58 µM. In addition, the TGI is 3.52 µM in [7], greater than 100 µM in experiment [8], 4.76 µM in experiment [9] and 3.05 µM in experiment [10].

`CCOC(=O)/C=C/c1c(C)[nH]c(=O)[nH]c1=O`: the TGI was greater than 250 µM in experiment [1]; greater than 250 µM in experiment [2]; greater than 250 µM in experiment [3]; greater than 250 µM in experiment [4]; greater than 158 µM in [5]; greater than 250 µM in experiment [6]. Also, the TGI in experiment [7] is greater than 141 µM; in [8], greater than 250 µM; in experiment [9] it was greater than 250 µM; in experiment [10], greater than 250 µM.

Regarding `COc1cc(-c2ccc(N=Nc3ccc4c(S(=O)(=O)O)cc(S(=O)(=O)O)c(N)c4c3O)c(OC)c2)ccc1N=Nc1ccc2c(S(=O)(=O)O)cc(S(=O)(=O)O)c(N)c2c1O`, the TGI in experiment [1], in experiment [2], in experiment [3], in experiment [4], in [5] and in experiment [6] was greater than 100 µM throughout. For the same molecule, the TGI in [7], in [8], in [9] and in [10] was greater than 100 µM throughout.

As for `O=C1CCC[C@H]2O[C@@H](COC(=O)c3ccccc3)C[C@H]2O1`, the TGI in experiment [2], in experiment [4], in [5], in [6], in experiment [7] and in experiment [8] was greater than 100 µM each time. Moreover, the TGI in experiment [9] and in experiment [10] was greater than 100 µM throughout.

`Cc1ccc(Cl)cc1N=NC(=O)NNc1cc(Cl)ccc1C`: the TGI is 51.6 µM in [1]; 38.3 µM in experiment [2]; 64.6 µM in [3]; 39 µM in experiment [4]; 49.5 µM in experiment [7]; 43.2 µM in experiment [8]. Besides, in [10], the TGI is 35.7 µM.

In the case of `COc1cccc2c1C(=O)c1c(O)c3c(c(O)c1C2=O)C[C@@](O)(C(=O)COC(=O)c1ccccc1)C[C@@H]3OC1CC(N)C(O)C(C)O1` (some centres undefined), the GI50 in [3] was 0.136 µM; in experiment [4], 0.0167 µM; in [6] it was 0.173 µM; in experiment [7] it was 0.264 µM; in [9], 0.0448 µM; in [10] it was 0.497 µM. The TGI in experiment [3] worked out at 0.652 µM; in experiment [4] it was 0.182 µM; in experiment [6], 1.34 µM; in [7], 1.44 µM; in [9], 0.253 µM; in experiment [10], 2.06 µM.

Consider `CCOC(=O)NC(Nc1cc(Cl)ccc1OC)(C(F)(F)F)C(F)(F)F`, for which the TGI in [1], in experiment [2], in experiment [3], in experiment [4], in experiment [6] and in experiment [7] was greater than 100 µM throughout. The TGI in experiment [8], in experiment [9] and in [10] was greater than 100 µM each time.
